# Results reported in US7413895B2, “DNA encoding neutral amino acid transporter” (Japan Science and Technology Corporation, priority 1998, dated 2008).
# “Also recorded” adds a separate entry of the source.
# What was measured:
# [1] = target: T1, human amino acid transporter LAT1 (Homo sapiens, UniProt Q01650); assay: Incorporation of 14C-labeled amino acids into oocytes co-expressing human LAT1 and human 4F2hc; assay type: cell-based; parameters: expressed in transfected cells; settings: for incorporation in a cell in which human LAT1 and human 4F2hc are co-expressed: summary statement of the disclosure; for incorporation of 14C-labeled amino acid into oocytes: oocytes co-expressing human LAT1 and human 4F2hc, 14C-labeled substrate 50 μM, 30 minutes
# [2] = system: T24 cells derived from human bladder cancer; assay: Michaelis-Menten kinetic test for the incorporation of leucine by T24 cells; assay type: cell-based; settings: leucine as substrate
# Method: T24 cells derived from human bladder cancer were incubated and maintained in an Eagle's minimal essential medium containing 10% of fetal bovine serum. A test for the incorporation of amino acids into T24 cells was carried out by incubating the T24 cells on a 24-well plate and finished when the state became confluent. The amino acid incorporation test was started by removing the incubating solution and adding a Dulbecco's PBS (manufactured by Gibco) containing ^14C-amino acid and finished by removing it, cooling with ice and washing with a Dulbecco's PBS. After washing, the above was dissolved in 0.1N NaOH and the radioactivity was measured by a liquid scintillation counter.
# A Michaelis-Menten kinetic test was carried out for the incorporation of leucine by T24 cells. The Michaelis-Menten kinetic test was conducted by investigating the changes in the incorporated rate of leucine by the difference in the concentration of the substrate leucine.
# [3] = system: T24 cells derived from human bladder cancer; assay: Inhibition of 14C-leucine incorporation by T24 cells by amino acids and similar substances; assay type: cell-based; settings: 14C-leucine 20 μM, 2 mM unlabeled compound
# [4] = target: T1, human amino acid transporter LAT1; settings: read-out: Michaelis constant (Km); leucine as substrate; Xenopus laevis oocytes co-expressing human LAT1 and human 4F2hc
# [5] = target: T2, rat neutral amino acid transporter LAT1 (Rattus norvegicus, UniProt Q63016); settings: read-out: Km value; leucine as substrate; oocytes injected with rat LAT1 and rat 4F2hc cRNA
# [6] = target: T1, human amino acid transporter LAT1; assay: Competitive antagonism test: incorporation of 14C-labeled leucine or phenylalanine into oocytes co-expressing human LAT1 and human 4F2hc in the presence of test substance; assay type: cell-based; parameters: expressed in transfected cells; settings: test substance 2 mM, 30 minutes; for inhibition of incorporation of 14C-labeled leucine mediated by the human LAT1: 14C-labeled leucine 20 μM, choline chloride uptake solution
# [7] = target: T2, rat neutral amino acid transporter LAT1; assay: Inhibition of 14C-leucine incorporation into oocytes injected with rat LAT1 and rat 4F2hc cRNA by amino acids and similar substances; assay type: cell-based; parameters: expressed in transfected cells; host or cells: oocytes (Xenopus laevis by the cited method of Kanai and Hediger) injected with rat LAT1 cRNA and rat 4F2hc cRNA; settings: rat LAT1/rat 4F2hc oocytes; 14C-leucine 20 μM, 2 mM unlabeled compound, choline uptake solution
# [8] = target: T2, rat neutral amino acid transporter LAT1; assay: Incorporation of radiolabeled amino acids into oocytes injected with rat LAT1 and rat 4F2hc cRNA; assay type: cell-based; parameters: expressed in transfected cells; host or cells: oocytes (Xenopus laevis by the cited method of Kanai and Hediger) injected with rat LAT1 cRNA and rat 4F2hc cRNA; settings: 14C compounds as substrates
# Method: Thus, the oocytes into which rat LAT1 gene cRNA, rat 4F2hc gene cRNA or rat LAT1 gene cRNA/rat 4F2hc gene cRNA was injected were incubated for 30 minutes in an uptake solution containing ^14C-leucine (50 μM) and incorporation of radioactivity into the oocytes was measured.
# As a substrate however, various radiolabeled compounds were used in place of ^14C-leucine.
# Mouse sarcoma 180 cells = assay: Survival of ICR mouse after intraperitoneal transplantation of mouse sarcoma 180 cells; assay type: in vivo; settings: male ICR mouse, sarcoma 180 cells intraperitoneally transplanted, 300 mg/kg for ten days, observation for 19 days
# Method: Mouse sarcoma 180 cells were intraperitoneally transplanted (1×10^6) to male ICR mouse and, from the next day of the transplantation, BCH which was a inhibitor for the amino acid transporter, D-Leu having a inhibiting effect on amino acid transporter and D-Ala having no inhibiting action thereon were administered at the dose of 300 mg/kg for ten days. After the transplantation, it was confirmed every day whether the mouse was dead or alive.
# [9] = system: rat liver cell line where LAT1 was highly expressed; assay: Cell proliferation of cultured rat liver cell line, Cell Counting Kit-8; assay type: cell-based; settings: 20 mM added to William's medium, incubation for 48 hours
# Method: A rat liver cell line where LAT1 was highly expressed was incubated on a William's medium, 20 mM of D-leucine or BCH which suppressed the incorporation mediated by LAT1 were added to the medium and, by means of an incubation for 48 hours, cell numbers were investigated using a Cell Counting Kit-8 (manufactured by Dojindo Laboratories). The cell numbers were measured as an absorption at 450 nm (O.D. 450).
# T1 sequence (Q01650 whole entry): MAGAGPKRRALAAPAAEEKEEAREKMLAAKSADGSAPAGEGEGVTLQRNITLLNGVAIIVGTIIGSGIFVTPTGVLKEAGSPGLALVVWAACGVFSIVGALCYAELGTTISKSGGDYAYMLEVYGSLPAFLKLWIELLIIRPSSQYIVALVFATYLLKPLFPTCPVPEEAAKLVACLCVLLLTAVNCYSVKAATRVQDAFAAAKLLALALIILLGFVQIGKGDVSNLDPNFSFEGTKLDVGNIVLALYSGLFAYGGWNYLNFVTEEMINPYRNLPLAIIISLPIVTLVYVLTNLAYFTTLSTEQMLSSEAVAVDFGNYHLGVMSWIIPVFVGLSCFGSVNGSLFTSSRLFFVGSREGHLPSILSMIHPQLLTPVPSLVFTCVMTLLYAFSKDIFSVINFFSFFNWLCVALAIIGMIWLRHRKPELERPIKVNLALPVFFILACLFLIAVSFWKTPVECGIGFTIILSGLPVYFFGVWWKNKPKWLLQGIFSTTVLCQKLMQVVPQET
# T1 sequence (as listed by the source partner): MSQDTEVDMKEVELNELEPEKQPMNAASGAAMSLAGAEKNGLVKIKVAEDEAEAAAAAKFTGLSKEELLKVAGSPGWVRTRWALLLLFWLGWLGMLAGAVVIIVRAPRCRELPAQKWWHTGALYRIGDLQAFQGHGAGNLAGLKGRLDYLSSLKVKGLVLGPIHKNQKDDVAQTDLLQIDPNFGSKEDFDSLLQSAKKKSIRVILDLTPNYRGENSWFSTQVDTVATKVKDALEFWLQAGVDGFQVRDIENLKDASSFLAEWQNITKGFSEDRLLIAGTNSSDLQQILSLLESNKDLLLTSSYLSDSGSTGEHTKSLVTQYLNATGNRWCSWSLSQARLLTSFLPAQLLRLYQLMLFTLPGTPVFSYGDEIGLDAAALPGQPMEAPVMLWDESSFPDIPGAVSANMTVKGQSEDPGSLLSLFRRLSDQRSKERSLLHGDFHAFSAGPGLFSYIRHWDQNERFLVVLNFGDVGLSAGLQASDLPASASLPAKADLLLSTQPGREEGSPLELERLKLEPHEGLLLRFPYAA
# T2 sequence (Q63016 whole entry): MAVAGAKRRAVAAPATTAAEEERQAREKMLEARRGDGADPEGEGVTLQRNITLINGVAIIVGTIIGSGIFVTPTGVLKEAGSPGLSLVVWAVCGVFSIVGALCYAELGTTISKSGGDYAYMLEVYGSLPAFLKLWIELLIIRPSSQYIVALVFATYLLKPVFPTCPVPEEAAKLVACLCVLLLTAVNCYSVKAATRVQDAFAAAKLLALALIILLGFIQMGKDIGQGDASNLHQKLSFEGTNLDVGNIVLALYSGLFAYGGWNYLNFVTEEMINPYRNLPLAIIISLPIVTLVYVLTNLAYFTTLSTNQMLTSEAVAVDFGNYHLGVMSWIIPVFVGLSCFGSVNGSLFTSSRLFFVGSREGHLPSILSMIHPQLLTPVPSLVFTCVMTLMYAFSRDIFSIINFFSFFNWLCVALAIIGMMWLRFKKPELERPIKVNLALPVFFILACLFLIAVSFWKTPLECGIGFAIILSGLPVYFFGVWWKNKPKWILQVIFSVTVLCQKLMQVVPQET
# T2 sequence (Q794F9 whole entry partner): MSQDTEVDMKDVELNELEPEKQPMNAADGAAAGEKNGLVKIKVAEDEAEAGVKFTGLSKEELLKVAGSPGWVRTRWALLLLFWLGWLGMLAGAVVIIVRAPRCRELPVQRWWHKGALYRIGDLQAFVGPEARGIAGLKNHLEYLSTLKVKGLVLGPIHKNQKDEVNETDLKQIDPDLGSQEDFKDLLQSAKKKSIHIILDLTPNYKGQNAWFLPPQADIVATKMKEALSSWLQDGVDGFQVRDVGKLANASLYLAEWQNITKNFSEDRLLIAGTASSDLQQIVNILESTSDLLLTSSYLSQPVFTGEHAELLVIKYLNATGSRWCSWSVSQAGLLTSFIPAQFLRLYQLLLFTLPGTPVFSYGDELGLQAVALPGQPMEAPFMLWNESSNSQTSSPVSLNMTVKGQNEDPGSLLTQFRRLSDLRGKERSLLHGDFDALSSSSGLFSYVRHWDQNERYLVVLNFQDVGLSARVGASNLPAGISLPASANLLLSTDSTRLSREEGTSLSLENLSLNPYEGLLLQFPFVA
Structure (SMILES),incorporation in a cell in which human LAT1 and human 4F2hc are co-expressed [1],inhibition of incorporation of 14C-leucine by T24 cells [3],inhibition of incorporation of 14C-labeled leucine mediated by the human LAT1 [6],incorporation of 14C-labeled amino acid into oocytes [1],inhibition of incorporation of 14C-leucine mediated by LAT1 [7],incorporation of radiolabeled substrate into the oocytes [8],also measured
C[C@@H](O)[C@H](N)C(=O)O [threonine],significant incorporation,–,–,–,–,–,–
CC(C)C[C@H](N)C(=O)O [leucine],very strong incorporation,strong cis-inhibiting effect,strongly inhibited,large incorporation; also recorded: significantly incorporated,strongly inhibited,big incorporation; also recorded: incorporation into the oocytes was noted,"Km [2]: 100 µM; Vmax value of leucine incorporation [2]: 23,870 pmol/mg protein/minute; Km [4]: ~21 µM; Km [5]: ~24 µM"
N=C(N)NCCC[C@H](N)C(=O)O [arginine],–,–,not affected at all,–,–,–,–
CSCC[C@H](N)C(=O)O [methionine],very strong incorporation,strong cis-inhibiting effect,strongly inhibited,significantly incorporated,strongly inhibited,incorporation into the oocytes was noted,–
NC(=O)C[C@H](N)C(=O)O [asparagine],significant incorporation,–,–,–,–,–,–
NC(=O)CC[C@H](N)C(=O)O [glutamine],significant incorporation,–,–,–,–,–,–
CC[C@H](C)[C@H](N)C(=O)O [isoleucine],very strong incorporation,strong cis-inhibiting effect,strongly inhibited,significantly incorporated,strongly inhibited,incorporation into the oocytes was noted,–
N[C@@H](CS)C(=O)O [cysteine],significant incorporation,strong cis-inhibiting effect,–,–,–,–,–
C[C@@H](N)C(=O)O [D-Ala],–,–,–,–,–,–,survival effect (Mouse sarcoma 180 cells): No survival effect
N[C@H](Cc1ccccc1)C(=O)O [D-phenylalanine],–,–,–,incorporated,–,–,–
N[C@@H](Cc1ccc(N(CCCl)CCCl)cc1)C(=O)O [melphalan],–,–,–,–,inhibited,–,–
N[C@@H](CCC(=O)O)C(=O)O [glutamic acid],–,–,not affected at all,–,–,–,–
N[C@@H](Cc1c[nH]c2ccccc12)C(=O)O [tryptophan],very strong incorporation,strong cis-inhibiting effect,strongly inhibited,significantly incorporated,strongly inhibited,incorporation into the oocytes was noted,–
N[C@@H](CC(=O)O)C(=O)O [aspartic acid],–,–,not affected at all,–,–,–,–
N[C@@H](Cc1cc(I)c(Oc2cc(I)c(O)c(I)c2)c(I)c1)C(=O)O [thyroxin],–,–,–,–,inhibited,–,–
CC(C)[C@H](N)C(=O)O [valine],very strong incorporation,strong cis-inhibiting effect,strongly inhibited,significantly incorporated,strongly inhibited,incorporation into the oocytes was noted,–
N[C@@H](Cc1ccccc1)C(=O)O [phenylalanine],very strong incorporation,strong cis-inhibiting effect,strongly inhibited,significantly incorporated,strongly inhibited,incorporation into the oocytes was noted,–
N[C@@H](Cc1ccc(O)cc1)C(=O)O [tyrosine],very strong incorporation,strong cis-inhibiting effect,strongly inhibited,significantly incorporated,strongly inhibited,incorporation into the oocytes was noted,–
NCCCC[C@H](N)C(=O)O [lysine],–,–,not affected at all,–,–,–,–
N[C@@H](Cc1c[nH]cn1)C(=O)O [histidine],very strong incorporation,strong cis-inhibiting effect,strongly inhibited,significantly incorporated,strongly inhibited,incorporation into the oocytes was noted,–
CC(C)C[C@@H](N)C(=O)O [D-leucine],–,–,–,incorporated,–,–,cell numbers (O.D. 450) compared with control group [9]: a reduction in the cell numbers was noted; survival effect (Mouse sarcoma 180 cells): significant survival effect
N[C@@H](Cc1ccc(O)c(O)c1)C(=O)O [L-DOPA],confirmed,–,–,–,–,–,"inhibition of incorporation of 14C-labeled phenylalanine into oocytes ([6]; 14C-labeled phenylalanine instead of leucine, choline uptake solution): strongly inhibited"
